Patent US20230165846A1, “HETEROCYCLIC GLP-1 AGONISTS” (Gasherbrum Bio, Inc., priority 2020, published 2023)

Legend:
[1] = target: T1, GLP-1 Receptor (Homo sapiens, UniProt P43220); assay: GLP-1R agonist cAMP stimulation assay, Method 1 (DiscoverX CHO-K1, enzyme fragment complementation); format: cell-based; conditions: CHO-K1 cell line (DiscoverX) stably expressing GLP-1 Receptor; incubation 30 or 60 min at 37° C.; geometric mean where n>=2; read-out: GLP1R cAMP Stimulation DR: EC50 (nM) Method 1
Method: Activation of GLP-1 receptor is known to stimulate cyclic AMP (cAMP) production in cells which indicates primary coupling to the Gas subunit of the G protein heterotrimeric complex.
Method 1: To optimize functional activity directed toward Gas coupling, a CHO—K1 cell line developed by DiscoverX stably expressing the GLP-1 Receptor was used. Cells expressing GLP-1 receptor were plated in a 384-well microtiter plates and incubated overnight at 37° C. with 5% CO2 to allow the cells to attach and grow. Media was then aspirated from the cells and replaced with 15 uL 2:1 Hanks Balanced Salt Solution (HBSS)/10mM Hepes : cAMP XS+ Ab reagent. Five microliters (5 uL) of previously generated compound sample stocks at 4x final concentration in assay buffer were then added to the cells and allowed to incubate at 37° C. for 30 or 60 minutes.
After incubation the assay signal was generated using enzyme fragment complementation (EFC). In EFC, the enzyme B-galactosidase is split into two complementary portions (EA and ED). The fragment ED is fused to cAMP and in the assay format competes with endogenous cAMP for binding to a cAMP specific antibody. Activated β—Gal is formed when exogenous EA fragment binds to free ED-cAMP (not bound to cAMP specific antibody). Activated enzyme levels are detected through conversion of β-gal chemiluminescent substrate which generates a detectable luminescence signal and read on standard microtiter plate.
The methodology for detection of cAMP using EFC requires incubation with 20uL of cAMP XS+ ED/CL lysis cocktail for one hour followed by incubation with 20 uL cAMP XS+ EA reagent for three hours at room temperature. Microplates were read following signal generation with a PerkinElmer Envision instrument utilizing chemiluminescent signal detection. Compound activity was analyzed using CBIS data analysis suite (ChemInnovation, CA). Percentage activity was calculated using the following formula:
(§1) %Activity = 100% x (mean RLU of test sample - mean RLU of vehicle control) / (mean RLU of MAX control - mean RLU of vehicle control))
(§2) This is done to account for the lognormal distribution of multiple estimates of EC50 values. In practice geometric mean is calculated by first generating log values of EC50, averaging replicates and then calculating the antilog of the average.

[2] = target: T1, GLP-1 Receptor; assay: GLP-1R agonist cAMP stimulation assay, Method 2 (HDB HEK293/GLP1R/CRE-LUC, Cisbio cAMP dynamic 2 kit); format: cell-based; conditions: HEK293/GLP1R/CRE-LUC cells (HD Biosciences); 30 min at 37° C.; 0.5 mM IBMX, 0.1% BSA; geometric mean where n>=2; read-out: GLP1R cAMP Stimulation DR: EC50 (nM) Method 2 (HDB)
Method: Method 2: Activation of GLP-1 receptor is known to stimulate cyclic AMP (cAMP) production in cells which indicates primary coupling to the Gas subunit of the G protein heterotrimeric complex.
To optimize functional activity directed toward Gas coupling, a HEK293/CRE-Luc cell line developed by HDB stably expressing the GLP-1 Receptor was used. 200× concentration of compound working solutions were prepared (Agilent Technologies Bravo) with ½log serial dilution in 384-well Echo LDV plate (Labcyte, Cat# LP-0200). […] Seal the plate and incubate at 37° C. with 5% CO2 for 30 min.
After incubation the cAMP assay signal was generated using cAMP dynamic 2 Kit (Cisbio). 5 µL cAMP-d2 working solution was added to each well, followed with 5 µL Anti-cAMP antibody-cryptate working solution added to each well using ThermoFisher Multidrop Combi. Incubate at room temperature for 1 hour protected from light.
as §1, §2

T1 sequence (P43220 24-463): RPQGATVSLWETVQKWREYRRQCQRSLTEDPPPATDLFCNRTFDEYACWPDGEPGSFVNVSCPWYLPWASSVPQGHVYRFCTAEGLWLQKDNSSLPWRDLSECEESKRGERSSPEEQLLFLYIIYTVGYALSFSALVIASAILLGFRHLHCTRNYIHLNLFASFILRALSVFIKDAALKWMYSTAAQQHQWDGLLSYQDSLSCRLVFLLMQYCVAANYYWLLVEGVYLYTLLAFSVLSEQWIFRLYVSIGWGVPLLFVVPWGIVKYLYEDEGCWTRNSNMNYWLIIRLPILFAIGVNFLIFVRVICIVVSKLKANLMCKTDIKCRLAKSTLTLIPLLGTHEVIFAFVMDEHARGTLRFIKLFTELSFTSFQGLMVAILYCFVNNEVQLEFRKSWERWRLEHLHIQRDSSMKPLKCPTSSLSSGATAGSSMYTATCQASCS

| SMILES | EC50 [1] [nM] | EC50 [2] [nM] |
| --- | --- | --- |
| O=C(O)c1ccc2nc(Cc3ccc(-c4cccc(OCc5ccc(Cl)cc5F)n4)cc3)n(C[C@@H]3CCO3)c2n1 [Compound 120aw, 2-[[4-[6-[(4-chloro-2-fluoro-phenyl)methoxy]-2-pyridyl]phenyl]methyl]-3-[[(2S)-oxetan-2-yl]methyl]imidazo[4,5-b]pyridine-5-carboxylic acid] | < 0.051 | 0.017 |
| O=C(O)c1ccc2nc(Cc3ccc(-c4nccc(OCc5ccc(Cl)cc5F)n4)cc3)n(C[C@@H]3CCO3)c2n1 [Compound 101aw, (S)-2-(4-(4-((4-chloro-2-fluorobenzyl)oxy)pyrimidin-2-yl)benzyl)-3-(oxetan-2-ylmethyl)-3H-imidazo[4,5-b]pyridine-5-carboxylic acid] | 0.069 | 0.097 |
| O=C(O)c1ccc2nc(CC3CC=C(c4cccc(OCc5ccc(Cl)cc5F)n4)CC3)n(C[C@@H]3CCO3)c2n1 (stereo partly drawn) [Compound 102a, 2-((4-(6-((4-chloro-2-fluorobenzyl)oxy)pyridin-2-yl)cyclohex-3-en-1-yl)methyl)-3-(((S)-oxetan-2-yl)methyl)-3H-imidazo[4,5-b]pyridine-5-carboxylic acid] | 0.016 | 0.0096 |
| N#Cc1ccc(COc2cccc(-c3ccn(Cc4nc5ccc(C(=O)O)nc5n4C[C@@H]4CCO4)c(=O)c3)n2)c(F)c1 [Compound 106aw, (S)-2-((6-((4-cyano-2-fluorobenzyl)oxy)-2′-oxo-[2,4′-bipyridin] -1′(2′H)-yl)methyl)-3-(oxetan-2-ylmethyl)-3H-imidazo[4,5-b]pyridine-5-carboxylic acid] | 1.3 | 4.1 |
| O=C(O)c1ccc2nc(Cn3ccc(-c4cccc(OCc5ccc(Cl)cc5F)n4)cc3=O)n(C[C@@H]3CCO3)c2n1 [Compound 103aw, (S)-2-((6-((4-chloro-2-fluorobenzyl)oxy)-2′-oxo-[2,4′-bipyridin]-1′(2′H)-yl)methyl)-3-(oxetan-2-ylmethyl)-3H-imidazo[4,5-b]pyridine-5-carboxylic acid] | 0.38 | 0.89 |
| O=C(O)c1ccc2nc(CN3CC=C(c4cccc(OCc5ccc(Cl)cc5F)n4)CC3)n(C[C@@H]3CCO3)c2n1 [Compound 110a, (S)-2-((6-((4-chloro-2-fluorobenzyl)oxy)-3′,6′-dihydro-[2,4′-bipyridin]-1′(2′H)-yl)methyl)-3-(oxetan-2-ylmethyl)-3H-imidazo[4,5-b]pyridine-5-carboxylic acid] | < 0.051 | 0.0074 |
| N#Cc1ccc(COc2cccc(C3=CCC(Cc4nc5ccc(C(=O)O)nc5n4C[C@@H]4CCO4)CC3)n2)c(F)c1 (stereo partly drawn) [Compound 101a, 2-((4-(6-((4-cyano-2-fluorobenzyl)oxy)pyridin-2-yl)cyclohex-3-en-1-yl)methyl)-3-(((S)-oxetan-2-yl)methyl)-3H-imidazo[4,5-b]pyridine-5-carboxylic acid] | < 0.051 | 0.019 |
| Cc1c(-c2cccc(OCc3ccc(Cl)cc3F)n2)ccn(Cc2nc3ccc(C(=O)O)nc3n2C[C@@H]2CCO2)c1=O [Compound 105aw, (S)-2-((6-((4-chloro-2-fluorobenzyl)oxy)-3′-methyl-2′-oxo-[2,4′-bipyridin]-1′(2′H)-yl)methyl)-3-(oxetan-2-ylmethyl)-3H-imidazo[4,5-b]pyridine-5-carboxylic acid] | 11 | 7.1 |
| O=C(O)c1ccc2nc(Cn3ccc(-c4cccc(OCc5ccc(Cl)cc5F)n4)cc3=O)n(C[C@@H]3CCO3)c2c1 [Compound 107aw, 2-[[4-[6-[(4-chloro-2-fluorophenyl)methoxy]-2-pyridyl]-2-oxo-1-pyridyl]methyl]-3-[[(2S)-oxetan-2-yl]methyl]benzimidazole-5-carboxylic acid] | 0.28 | 0.19 |
| N#Cc1ccc(COc2nc(C3=CCN(Cc4nc5ccc(C(=O)O)nc5n4C[C@@H]4CCO4)CC3)cs2)c(F)c1 [Compound 112a, (S)-2-((4-(2-((4-cyano-2-fluorobenzyl)oxy)thiazol-4-yl)-3,6-dihydropyridin-1 (2H)-yl)methyl)-3-(oxetan-2-ylmethyl)-3H-imidazo[4,5-b]pyridine-5-carboxylic acid] | 0.26 | 0.17 |
| O=C(O)c1ccc2nc(COc3cc(-c4cccc(OCc5ccc(Cl)cc5F)c4)ccn3)n(C[C@@H]3CCO3)c2n1 [Compound 110aw, 2-[[4-[3-[(4-chloro-2-fluoro-phenyl)methoxy]phenyl]-2-pyridyl]oxymethyl]-3-[[(2S)-oxetan-2-yl]methyl]imidazo[4,5-b]pyridine-5-carboxylic acid] | 43 | 88 |

Now from value to compound:

| EC50 [1] [nM] | EC50 [2] [nM] | SMILES |
| --- | --- | --- |
| 0.073 | 0.095 | O=C(O)c1ccc2nc(CC3CC=C(c4nccc(OCc5ccc(Cl)cc5F)n4)CC3)n(C[C@@H]3CCO3)c2n1 (stereo partly drawn) [Compound 103a, 2-((4-(4-((4-chloro-2-fluorobenzyl)oxy)pyrimidin-2-yl)cyclohex-3-en-1-yl)methyl)-3-(((S)-oxetan-2-yl)methyl)-3H-imidazo[4,5-b]pyridine-5-carboxylic acid] |
| 4.8 | 10 | O=C(O)c1ccc2nc(COc3cc(-c4cccc(OCc5ccc(Cl)cc5F)n4)c(F)cn3)n(C[C@@H]3CCO3)c2n1 [Compound 109aw, (S)-2-(((6-((4-chloro-2-fluorobenzyl)oxy)-5′-fluoro-[2,4′-bipyridin]-2′-yl)oxy)methyl)-3-(oxetan-2-ylmethyl)-3H-imidazo[4,5-b]pyridine-5-carboxylic acid] |
| 0.17 | 0.13 | Cc1cn(Cc2nc3ccc(C(=O)O)nc3n2C[C@@H]2CCO2)c(=O)cc1-c1cccc(OCc2ccc(Cl)cc2F)n1 [Compound 104aw, (S)-2-((6-((4-chloro-2-fluorobenzyl)oxy)-5′-methyl-2′-oxo-[2,4′-bipyridin]-1′(2′H)-yl)methyl)-3-(oxetan-2-ylmethyl)-3H-imidazo[4,5-b]pyridine-5-carboxylic acid] |
| 0.18 | 0.073 | O=C(O)c1ccc2nc(CN3CC=C(c4csc(OCc5ccc(Cl)cc5F)n4)CC3)n(C[C@@H]3CCO3)c2n1 [Compound 111a] |
| 0.12 | 0.089 | N#Cc1ccc(COc2nccc(C3=CCC(Cc4nc5ccc(C(=O)O)nc5n4C[C@@H]4CCO4)CC3)n2)c(F)c1 (stereo partly drawn) [Compound 105a, 2-((4-(2-((4-cyano-2-fluorobenzyl)oxy)pyrimidin-4-yl)cyclohex-3-en-1-yl)methyl)-3-(((S)-oxetan-2-yl)methyl)-3H-imidazo[4,5-b]pyridine-5-carboxylic acid] |
| 2.2 | 1.9 | O=C(O)c1ccc2nc(Cc3ccc(-c4nccc(OCc5ccccc5)n4)cc3)n(C[C@@H]3CCO3)c2n1 [Compound 102aw, 2-[[4-(4-benzyloxypyrimidin-2-yl)phenyl]methyl]-3-[[(2S)-oxetan-2-yl]methyl]imidazo[4,5-b]pyridine-5-carboxylic acid] |
| 5.9 | 5.7 | O=C(O)c1ccc2nc(Cn3ccc(-c4cccc(OCc5ccc(Cl)cc5F)c4)cc3=O)n(C[C@@H]3CCO3)c2n1 [Compound 108aw, 2-[[4-[3-[(4-chloro-2-fluoro-phenyl)methoxy]phenyl]-2-oxo-1-pyridyl]methyl]-3-[[(2S)-oxetan-2-yl]methyl]-imidazo[4,5-b]pyridine-5-carboxylic acid] |
